{"source": "patent US10869858B2", "about": "“Therapeutic agent for amyotrophic disorders” (TOHOKU UNIVERSITY, priority 2015, dated 2020)", "key": {"wobbler mice": {"system": "wobbler mice", "assay": "Rotarod test in ALS animal models (wobbler mice)", "format": "in vivo", "conditions": "150 mg/kg orally once a day, 16 days after administration start, 10 rpm, n=14; control group 43%; P=0.018", "description": "To 4-week-old wobbler mice, the compound of Example 1 (150 mg/kg) or a solvent, a 0.5% aqueous solution of methyl cellulose as a control was orally administered at a rate of 10 mL/kg once a day. Sixteen days after administration start date, the animals were placed on a mouse rotarod (manufactured by Muromachi Kikai Co., Ltd.) set at a rotation speed of 10 rpm and the time to fall was measured (rotarod test). The rotarod walking time was measured three times, and the upper limit of one measurement time was 300 seconds."}, "[1]": {"system": "ALS patient-derived fibroblasts", "assay": "Degree of cell damage of ALS patient-derived fibroblasts treated with BSO 500 μmol/L, Method 2, LDH Cytotoxicity Detection Kit", "format": "cell-based", "conditions": "500 μmol/L BSO; compound at 0.1, 0.3, 1, 3 and 10 μmol/L; three days with compound; FIG. 2", "description": "(§1) ALS patient-derived fibroblasts can be used to confirm the inhibitory effect of the compound of the present invention on cell death induced by treating the ALS patient-derived fibroblasts with the glutathione synthesis inhibitor, L-buthionine(S, R)sulfoximine (BSO).\n(§2) 3.0×10^3 Cells per well of ALS patient-derived fibroblasts were seeded in a 96-well cell culture plate using a DMEM (low glucose) medium containing 1% FBS. One day after cell seeding, BSO was mixed in the culture medium so that the concentration thereof is 500 μmol/L. After culturing in the presence of BSO for one day, the compound of Example 1 was mixed in the culture medium so that the concentration thereof is 0.1, 0.3, 1, 3 or 10 μmol/L. After culturing in the presence of the compound for another three days, the number of living cells in each well was counted by using Cell Counting Kit-8 (manufactured by Dojindo Laboratories) to calculate cell viability. In addition, the degree of cell damage was measured by using LDH Cytotoxicity Detection Kit (manufactured by Takara Bio Inc.). Here, wells to which both BSO and the compound were not added but distilled water and DMSO that were solvents for BSO and the compound, respectively were added were used as a control of the oxidative stress loading; wells to which both BSO and the compound were added were used as a control for the effect of the test compound."}, "[2]": {"system": "ALS patient-derived fibroblasts", "assay": "Cell viability of ALS patient-derived fibroblasts treated with BSO 500 μmol/L, Method 2, Cell Counting Kit-8", "format": "cell-based", "conditions": "500 μmol/L BSO; compound at 0.1, 0.3, 1, 3 and 10 μmol/L; three days with compound; FIG. 2", "description": "as §1, §2"}, "[3]": {"system": "ALS patient-derived fibroblasts", "assay": "Inhibitory effect on cell death of ALS patient-derived fibroblasts induced by oxidative stress (BSO 100 μmol/L), Method 1, Cell Counting Kit-8", "format": "cell-based", "conditions": "100 μmol/L BSO; compound at 10 and 30 μmol/L; two days with compound; FIG. 1", "description": "as §1\n6.4×10^3 Cells per well of ALS patient-derived fibroblasts were seeded in a 96-well cell culture plate using a DMEM medium containing 1% FBS. One day after cell seeding, BSO was mixed in the culture medium so that the concentration thereof was 100 μmol/L. After culturing in the presence of BSO for one day, the compound of Example 1 was mixed in the culture medium so that the concentration thereof is 1, 3, 10 or 30 μmol/L. After culturing in the presence of the compound for another two days, the number of living cells in each well was counted by using Cell Counting Kit-8 (manufactured by Dojindo Laboratories) to calculate cell viability. Here, wells to which both BSO and the compound were not added but distilled water and DMSO that were solvents for BSO and the compound, respectively were added were used as a control of the oxidative stress loading; wells to which both BSO and the compound were added were used as a control for the effect of the test compound."}}, "data": [{"smiles": "O=C(CC(C(=O)O)c1c[nH]c2ccccc12)c1ccc(F)cc1F", "note": "(stereo not shown) [Example 1, 4-(2,4-difluorophenyl)-2-(1H-indol-3-yl)-4-oxobutanoic acid]", "values": [{"measurement": "occurrence ratio of animals whose rotarod walking time exceeded 300 seconds", "setting": "wobbler mice", "result": 86, "unit": "%"}, {"measurement": "prevention of cytotoxicity (degree of cell damage, LDH) induced by BSO", "setting": "[1]", "result": "statistically significantly prevented"}, {"measurement": "prevention of low cell viability induced by BSO", "setting": "[2]", "result": "statistically significantly prevented the low cell viability"}, {"measurement": "inhibition of cell death induced by BSO (cell viability)", "setting": "[3]", "result": "statistically significantly inhibited cell death"}]}]}
